Patent US20100099762A1, “COMBINATION THERAPY” (THE MENTAL HEALTH RESEARCH INSTITUTE OF VICTORIA, priority 2006, published 2010)
Marks after values point to notes of the source that are not given here.

Test system: schizophrenia
Experiment: Randomised double blind multicentre placebo controlled trial of NAC in combination with an antipsychotic agent in schizophrenia
Format: in vivo, human
Description: There is preclinical evidence of a reduction in antioxidant defences in schizophrenia, particularly a reduction in glutathione, which is a primary endogenous antioxidant defence. N-acetyl cysteine (NAC) is a bioavailable precursor of glutathione. This Example is a randomised double blind multicentre placebo controlled trial of the use of NAC in combination with an antipsychotic agent in the treatment of schizophrenia. A total of 140 individuals were randomised to receive 2 g daily of NAC in two divided doses, or placebo, together with their normal dosage of antipsychotic agent.
Participants were assigned randomly and consecutively to treatment with NAC or placebo in a double blind fashion. The randomisation log was generated by an independent individual using the traditional coin tossing method. The investigators and clinicians remained blind until data analysis was completed. The person generating the randomisation schedule was not involved in participant interviews, either for participant eligibility or outcome measurements.
All participants remained on their usual antipsychotic medication for the duration of the trial. The dose of the primary therapy was monitored. Participants were recruited through advertisements, referral by case clinicians and through database screening. All participants provided written informed consent as part of complying with the protocol.
All randomised participants received two NAC (500 mg) capsules twice daily, to a total dose of 2 g daily, or matching placebo capsules. Human dosing can be up to 5 g/day without adverse effects (Louwerse E. S. et al., 1995). A daily dose that is within the range of efficacy in published clinical trials (Adair J. C. et al., 2001, Van Schooten F. J. et al., 2002, and Behr J, et al., 2002) was selected. Once per day dosing is desirable in the drug treatment of schizophrenia, where medication compliance is known to be a challenge in management. However, steady state plasma levels cannot be achieved with a once daily oral dose of NAC as the plasma half-life is only 2-3 hours (Holdiness M. R., 1991 and Kelly G. S., 1998). While a twice-daily (BID) dosing regimen would also not be expected to achieve steady state plasma levels, dose intervals beyond BID were considered to markedly increase the risk of non-compliance in this population.
To be included, the patients were required to meet Diagnostic and Statistical Manual of Mental Disorders, fourth edition (DSM-IV) (Association AP, 1994) criteria for schizophrenia and have a PANSS total score of ≧55, or at least two items in the positive and/or negative items being >3, or have a CGI-S≧3. They needed to have the capacity to consent to the study, and be aged between 18 and 65. Both inpatients and outpatients were eligible. Participants needed to be currently taking an antipsychotic agent and to be utilising effective contraception if female and of childbearing age. Exclusion criteria included patients with abnormal renal, hepatic, thyroid or haematological findings, patients with a systemic medical disorder including asthma, allergies or any history of bronchospasm, respiratory insufficiency and recent gastrointestinal ulcers and females who were positive on pregnancy screening testing at baseline. Participants who were taking a mood stabiliser (e.g. lithium, valproate and carbamazepine) were excluded as were those currently taking drugs that are known to prevent GSH depletion (500+mg of NAC/day, 200+ug of selenium/day or 500+IU of Vitamin E/day).
Withdrawal from the trial occurred if participants ceased taking their trial medication for seven consecutive days, or ceased effective contraception, or became pregnant. A change in primary antipsychotic from one medication to another required participants to be withdrawn from the study. Similarly, the addition of a mood stabiliser required withdrawal of the participant. Dose changes to existing medications were not an exclusion criterion, and this was monitored. […]

[1] = score at week 24, end of treatment
[2] = washout, week 28, LOCF ANCOVA with interaction term
[3] = week 8, LOCF ANCOVA, Placebo-NAC
[4] = week 24, LOCF ANCOVA, Placebo-NAC
[5] = week 24 to washout, week 28, LOCF ANCOVA
[6] = week 24 to washout, week 28, LOCF ANCOVA with interaction term

CC(=O)N[C@@H](CS)C(=O)O [NAC, N-acetyl cysteine]
PANSS General: NAC Mean Week 24 (SD) [1]: 28.8 (8.5) | PANSS Negative: NAC Mean Week 24 (SD) [1]: 13.7 (4.9) | PANSS Positive: NAC Mean Week 24 (SD) [1]: 14.5 (5.6) | PANSS Total: NAC Mean Week 24 (SD) [1]: 57.0 (16.1) | SAS: NAC Mean Week 24 (SD) [1]: 1.6 (1.3) | SOFAS: NAC Mean Week 24 (SD) [1]: 58.8 (12.7) | Onset of clinical benefit on CGI-I (scores significantly better than placebo) (time from commencing treatment, Fisher's categorical analysis): ≤ 4 weeks | Onset of clinical benefit on CGI-S (scores significantly better than placebo) (time from commencing treatment, MMRM): ≤ 2 weeks | AIMS: LS Mean Difference (95% CI) between placebo and NAC at post-treatment discontinuation (washout, week 28, LOCF ANCOVA): −0.40 (−1.41, 0.61) | BAS: LS Mean Difference (95% CI) between placebo and NAC at post-treatment discontinuation (washout, week 28, LOCF ANCOVA): −0.31 (−0.91, 0.29)^‡ | GAF: LS Mean Difference (95% CI) between placebo and NAC at post-treatment discontinuation (washout, week 28, LOCF ANCOVA): 0.61 (−3.5, 4.72)^‡ | PANSS Positive: LS Mean Difference (95% CI) between placebo and NAC at post-treatment discontinuation (washout, week 28, LOCF ANCOVA): 0.75 (−0.72, 2.22) | SAS: LS Mean Difference (95% CI) between placebo and NAC at post-treatment discontinuation (washout, week 28, LOCF ANCOVA): −0.52 (−0.99, −0.05)* | SOFAS: LS Mean Difference (95% CI) between placebo and NAC at post-treatment discontinuation (washout, week 28, LOCF ANCOVA): −1.17 (−4.89, 2.55) | PANSS General: LS Mean Difference (95% CI) between placebo and NAC at post-treatment discontinuation [2]: −0.85 (−3.45, 1.75)^‡ | PANSS Negative: LS Mean Difference (95% CI) between placebo and NAC at post-treatment discontinuation [2]: −1.58 (−3.17, 0.00)^‡ | PANSS Total: LS Mean Difference (95% CI) between placebo and NAC at post-treatment discontinuation [2]: −2.70 (−6.85, 1.45)^‡ | AIMS: Between Placebo-NAC differences Week 8 LS Mean Difference (95% CI) [3]: −0.31 (−1.0, 0.41) | BAS: Between Placebo-NAC differences Week 8 LS Mean Difference (95% CI) [3]: 0.20 (−0.24, 0.64) | GAF: Between Placebo-NAC differences Week 8 LS Mean Difference (95% CI) [3]: −0.51 (−3.7, 2.7) | PANSS General: Between Placebo-NAC differences Week 8 LS Mean Difference (95% CI) [3]: −1.5 (−3.4, 0.34) | PANSS Negative: Between Placebo-NAC differences Week 8 LS Mean Difference (95% CI) [3]: −0.49 (−1.8, 0.80) | PANSS Positive: Between Placebo-NAC differences Week 8 LS Mean Difference (95% CI) [3]: −0.25 (−1.5, 0.98) | PANSS Total: Between Placebo-NAC differences Week 8 LS Mean Difference (95% CI) [3]: −2.6 (−6.1, 0.80) | SAS: Between Placebo-NAC differences Week 8 LS Mean Difference (95% CI) [3]: −0.06 (−0.39, 0.26) | SOFAS: Between Placebo-NAC differences Week 8 LS Mean Difference (95% CI) [3]: −0.20 (−3.9, 3.5) | AIMS: Between Placebo-NAC differences Week 24 LS Mean Difference (95% CI) [4]: 0.12 (−0.65, 0.89) | BAS: Between Placebo-NAC differences Week 24 LS Mean Difference (95% CI) [4]: 0.54 (0.08, 1.00)* | GAF: Between Placebo-NAC differences Week 24 LS Mean Difference (95% CI) [4]: −2.6 (−6.6, 1.3) | PANSS Positive: Between Placebo-NAC differences Week 24 LS Mean Difference (95% CI) [4]: 0.50 (−1.1, 2.1) | SAS: Between Placebo-NAC differences Week 24 LS Mean Difference (95% CI) [4]: 0.11 (−0.27, 0.50) | SOFAS: Between Placebo-NAC differences Week 24 LS Mean Difference (95% CI) [4]: −0.92 (−5.67, 3.82) | AIMS: NAC Mean Overall Change (95% CI) at post-treatment discontinuation [5]: −0.27 (−1.0, 0.50) | BAS: NAC Mean Overall Change (95% CI) at post-treatment discontinuation [5]: 0.42 (−0.02, 0.86) | CGI-S: NAC Mean Overall Change (95% CI) at post-treatment discontinuation [5]: −0.17 (−0.41, 0.08) | GAF: NAC Mean Overall Change (95% CI) at post-treatment discontinuation [5]: 0.37 (−2.7, 3.5) | PANSS Positive: NAC Mean Overall Change (95% CI) at post-treatment discontinuation [5]: −0.96 (−2.0, 0.12) | SAS: NAC Mean Overall Change (95% CI) at post-treatment discontinuation [5]: 0.30 (−0.06, 0.65) | SOFAS: NAC Mean Overall Change (95% CI) at post-treatment discontinuation [5]: −0.79 (−3.8, 2.2) | PANSS General: NAC Mean Overall Change (95% CI) at post-treatment discontinuation [6]: 0.18 (−1.7, 2.1) | PANSS Negative: NAC Mean Overall Change (95% CI) at post-treatment discontinuation [6]: 0.60 (−0.55, 1.7) | PANSS Total: NAC Mean Overall Change (95% CI) at post-treatment discontinuation [6]: 0.56 (−2.4, 3.6) | Proportion of patients clinically improved on the CGI-I scale referred to baseline (week 28, after washout, NAC versus placebo): remained significantly greater | More subjects in the NAC treatment group showing improvement on CGI-I compared to placebo (weeks 12, 16 and 24): ≈ 25%
